The first data set is described as follows: in vitro. Particulars: human, hela cells, % viability.
For `Cc1cccc2c1CC(=O)NC21CCN(CC(=O)c2ccc(F)cc2)CC1` [CBK039946], the viability at 28.5 h, 10 µM stood at 96%. Regarding `N#Cc1ccccc1/C=N/NC(=O)COc1ccc(-c2cc(-c3ccccc3)c3cc(Cl)ccc3n2)cc1` [CBK263337], the viability at 28.5 h, 10 µM was 89.1%. Still for that read-out and setting: the result for `Cn1c(NC(=O)c2ccccc2[N+](=O)[O-])cc(=O)n(C)c1=O` [CBK294417] reads 84%. Still for that read-out and setting: the result for `Cc1nc2cccnc2n1C1CCN(C(=O)C(C)(C)C)CC1` [CBK282426] reads 89.2%; that for `Cl/C(=C\c1ccccc1)CN1CCOCC1` [CBK261892], 114%; that for `O=C(CCN1CCCCC1)N1CCc2ccccc21` [CBK200413], 91.1%. Take `Cc1cc(C)c2c(n1)oc1c(Cl)ncnc12` [CBK008822]: the viability at 28.5 h, 10 µM was determined as 93%. Consider `c1cnc(NCc2cc3n(n2)CCN(CC2CCCCO2)C3)cn1` (stereo not shown) [CBK306891], for which the viability at 28.5 h, 10 µM amounted to 96.4%. Same read-out and setting: for `N=C1NC(=O)/C(=C/c2cccc(OCCOc3ccc(C4CCCCC4)cc3)c2)S1` [CBK263956] the value was 87.6%; for `Cc1cc(O)n(-c2cc(-c3ccccc3)nc(-c3ccccc3)n2)n1` [CBK262014], 95.5%; for `Cc1nn2c(=O)c(CCC(=O)O)c(C)[nH]c2c1-c1ccccc1` [CBK287011], 92.4%. The same measure, in the same setting: the result for `O=C(CCc1ccc(-c2ccc(F)cc2)o1)Nc1ccc(C(=O)O)cc1` [CBK300502] reads 99%; that for `Nc1ncc(-c2ccc(C(=O)N3CCOCC3)cc2)cc1C(=O)NCc1c(F)cccc1F` [CBK158569], 80.6%. Same read-out and setting: for `CCOC(=O)N1CCC(NS(=O)(=O)c2cc(C(=O)OC)n(C)c2)CC1` [CBK304688] the value was 92.3%; for `Cn1ccnc1CN1CCN(Cc2nccn2C)CC1` [CBK266206C], 98.7%. `OCCOc1ccccc1N1CCOCC1` [CBK001767C]: the viability at 28.5 h, 10 µM was found to be 116%.

As for `O=C(c1cc2ccccc2o1)N1CCN(c2cccc(C(F)(F)F)c2)CC1` [CBK297507], the viability at 28.5 h, 10 µM came out at 96.8%. Same read-out and setting: for `Cc1oc(-c2ccc(Cl)cc2)cc1C(=O)CC#N` [CBK047603] the value was 85.4%; for `Cc1cc(Cl)cc(Cl)c1S(=O)(=O)Nc1nc(CC(=O)O)cs1` [CBK000573], 92%; for `CCCCC(C(=O)O)N1C(=O)c2ccccc2C1=O` (stereo not shown) [CBK287153], 101%.

Turning to `O=C(NCCNc1cnccn1)c1ccc(Br)cc1F` [CBK305639], the viability at 28.5 h, 10 µM was 89.5%. Take `CSc1[nH]nc(-c2ccc(C(C)(C)C)cc2)c1C#N` [CBK016999]: the viability at 28.5 h, 10 µM came out at 108%.

In the case of `O=C(Nc1ccc(N2CCOCC2)c2nonc12)c1cc(-c2cccnc2)nc2ccc(Cl)cc12` [CBK267724], the viability at 28.5 h, 10 µM amounted to 89.8%. For `NC(=O)CNC(=O)C1CCCN(c2nc3c(-c4ccccc4)csc3c(=O)[nH]2)C1` (stereo not shown) [CBK215487], the viability at 28.5 h, 10 µM was determined as 112%. On the same count and under the same terms, for `CC(NC(=O)c1ncoc1-c1ccccc1)c1ccccn1` (stereo not shown) [CBK283889] the value was 92.6%; for `CCCCNCCn1cnc2c(N)ncnc21` [CBK057447], 116%; for `COc1ccc(-n2c(SCC(=O)O)nnc2-c2cccs2)cc1` [CBK265636], 118%. Still for that read-out and setting: for `O=c1[nH]c2ncc(-c3cccc(OC(F)(F)F)c3)nc2n1C1CCCCC1` [CBK064187] the value was 93.6%; for `COc1ccc2c(c1)C=C(/C=C/C1=CCN(C)CC1)CO2` [CBK283818], 81.1%. Turning to `Cn1cc(C(c2ccccc2OCC(=O)O)c2cn(C)c3ccccc23)c2ccccc21` [CBK266410], the viability at 28.5 h, 10 µM was found to be 112%. For `O=C(C1=C(O)C(=O)N(Cc2cccnc2)C1c1cccc(Oc2ccccc2)c1)c1ccc(Cl)cc1` (stereo not shown) [CBK264698], the viability at 28.5 h, 10 µM was found to be 86.6%. On the same count and under the same terms, the result for `Fc1ccc(OCCNCC2NCCc3c2[nH]c2ccccc32)cc1` (stereo not shown) [CBK066972] reads 92.8%; that for `O=C(O)C(CC(=O)N1CCOCC1)NCc1ccccc1` (stereo not shown) [CBK267000], 100%; that for `COc1ccc(NC(=O)Nc2nn(Cc3ccc(Cl)cc3Cl)cc2Br)cc1OC` [CBK266930], 101%. The same measure, in the same setting: for `Cn1c(=O)c2c(=S)[nH]c(-c3ccccc3)nc2n(C)c1=O` [CBK288422] the value was 103%; for `Cc1cccc(OCc2nnc(SCC(=O)Nc3cc(C(F)(F)F)ccc3Cl)o2)c1C` [CBK267204], 85.3%; for `OC(c1cccs1)C1CCN(Cc2cnn(-c3ccccc3)c2)CC1` (stereo not shown) [CBK307290], 105%.

Take `Cc1ccc2n1CCN(C(=O)c1cccc(-n3cnnc3)c1)C2C(C)C` (stereo not shown) [CBK282444]: the viability at 28.5 h, 10 µM is 105%.

In the case of `CCN(CC)C(=O)C1CCCN(C(=O)NCCOC)C1` (stereo not shown) [CBK156129], the viability at 28.5 h, 10 µM was 99.2%. On the same count and under the same terms, the result for `Nc1ncnc2c1ncn2C1OC(C(=O)O)C(O)C1O` (stereo not shown) [CBK262922] reads 99.9%; that for `Cc1cc(C)n(CC(=O)Nc2ccccc2-n2ccnc2)n1` [CBK283079], 101%; that for `CS(=O)(=O)Nc1cccc(-c2cnc3[nH]c(=O)n(Cc4cccs4)c3n2)c1` [CBK064708], 91%. Still for that read-out and setting: the result for `Cc1cccnc1C(c1ccccc1)N(C)C(=O)C1CCN(C(=O)OCc2ccccc2)CC1` (stereo not shown) [CBK060522] reads 93.9%; that for `COc1ccc(NC(=O)c2c[nH]c3nc(C)ccc3c2=O)cc1` [CBK287816], 88.4%. Take `O=C(Nc1cccnc1)C1CCN(S(=O)(=O)c2ccc(Oc3ccccc3)cc2)CC1` [CBK269621]: the viability at 28.5 h, 10 µM amounted to 81.8%. Same read-out and setting: the result for `CN1CCN(CCOC(=O)N2CCC(C(F)(F)F)CC2)CC1` [CBK200206] reads 103%. The same measure, in the same setting: the result for `Cc1ccc2nc(-c3ccc(N4C(Nc5nc(C)cc(C)n5)=NC(=O)CC4C(=O)O)cc3)sc2c1` (stereo not shown) [CBK266646] reads 104%.

Consider `[O-][N+]1=C2CCc3c(no[n+]3[O-])C2(O)CC1N1CCOCC1` (stereo not shown) [CBK261515], for which the viability at 28.5 h, 10 µM amounted to 112%.

For `Cc1ccc(-n2c(SCC(=O)Nc3ccccc3F)nnc2-c2ccccc2O)c(C)c1` [CBK268905], the viability at 28.5 h, 10 µM came out at 88.6%. On to `CCOc1ccc(-c2cc(C(=O)NCc3cc(OC)ccc3OC)n[nH]2)cc1` [CBK288116], for which the viability at 28.5 h, 10 µM is 85.7%. Turning to `O=C(O)C1CCN(C(=O)CCC(=O)N2CCN(c3ccccc3)CC2)CC1` [CBK286896], the viability at 28.5 h, 10 µM is 93.9%. As for `OCCSCc1ccc2nonc2c1` [CBK020617], the viability at 28.5 h, 10 µM was 107%. The same measure, in the same setting: for `c1ccc(-n2nnnc2SCc2cccc(CSc3nnnn3-c3ccccc3)n2)cc1` [CBK263258] the value was 90.4%; for `CC(C)(C)OC(=O)N1CCC(COc2ccc(-c3ccncc3)cn2)CC1` [CBK161777], 91.8%; for `CN(Cc1cccc(C(F)(F)F)c1)C(=O)c1cn(CC2CCCO2)nn1` (stereo not shown) [CBK304360], 99.8%. Still for that read-out and setting: the result for `COc1ccc(OC)c(CCO)c1` [CBK003033] reads 94.4%; that for `CCOc1ccc(-c2ccnc(NCC3CCCOC3)n2)cc1C(=O)O` (stereo not shown) [CBK307694], 88.2%.

Staying with this data set, now noted: human, hela cells, % viability, bulk resorufin, single well.
Take `Cc1cn(-c2ccc(OC(=O)NC(C)(C)C)c(Cl)c2)c(=O)n1C` [CBK025991]: the viability at 28.5 h, 10 µM came out at 106%.

One may read the viability as a read-out of living cells in per cent, often relative to untreated cells.

The values above are taken from article PMC12040169 (PLOS Biology, 2025).
